Test [1] deals with KB. The test can be described thus: Cytotoxicity against human KB cells. In kind it is functional, cell-based.
Test [2] in a line: Reversal of multidrug resistance in human 2780AD cells assessed as increase in vincristine accumulation relative to verapamil. In kind it is functional, A2780 ADR. Further details: concentration or dose not given beside the values.

This is an account of results in ChEMBL document CHEMBL1138436, “Biological activity and chemistry of taxoids from the Japanese yew, Taxus cuspidata” (J Nat Prod, 2004).

The IC50 is the midpoint of a concentration-inhibition curve.

Values after ≈ are worked out from the molar mass of the structure shown.

For `C=C1[C@@H](OC(=O)/C=C/c2ccccc2)C[C@H](OC(C)=O)[C@@]2(COC(C)=O)[C@@H](OC(C)=O)[C@H](O)[C@]3(O)[C@@]4(C)CO[C@]3(C)C(=O)C[C@H]4[C@@H](OC(C)=O)[C@H]12` [TAXUSPINE T], half-maximal inhibition in test [1] (IC50) was put at 0.08 µg/mL (≈ 0.112 µM).
In the case of `CC(=O)O[C@H]1C[C@H]2[C@@H](OC(C)=O)/C=C3\C[C@](C)(C(=O)[C@H](O)C(=C1C)C2(C)C)[C@@H](OC(C)=O)C[C@@H]3O` [TAXUSPINE W], half-maximal inhibition in test [1] (IC50) was put at 0.08 µg/mL (≈ 0.162 µM).
`C=C1[C@@H](OC(=O)/C=C/c2ccccc2)C[C@H](OC(C)=O)[C@@]2(C)[C@@H](OC(C)=O)[C@H](OC(C)=O)[C@]3(O)[C@@]4(C)CO[C@]3(C)C(=O)C[C@H]4[C@@H](OC(C)=O)[C@H]12` [TAXAGIFINE] displayed a half-inhibitory concentration (IC50) in test [1] of 0.08 µg/mL (≈ 0.115 µM).
Turning to `C=C1[C@@H](O[Si](CC)(CC)CC)CC[C@@]2(C)[C@@H](OC(C)=O)[C@H](OC(C)=O)C3=C(C)C(=O)C[C@@H]([C@@H](OC(C)=O)[C@H]12)C3(C)C`, the Activity in test [2] is recorded as 91%.
Consider `C=C1[C@@H](O)CC[C@@]2(C)[C@@H](OC(C)=O)[C@H](OC(C)=O)C3=C(C)C(=O)C[C@@H]([C@@H](OC(=O)/C=C/c4ccccc4)[C@H]12)C3(C)C`, for which the Activity in test [2] was 98%.
Regarding `CC[Si](CC)(CC)O[C@H]1CC[C@@]2(C)[C@@H](OC(C)=O)[C@H](OC(C)=O)C3=C(C)C(=O)C[C@@H]([C@@H](OC(C)=O)[C@@H]2[C@]12CO2)C3(C)C`, in test [2], the Activity was determined as 102%.
As to `C=C1[C@@H](OC(=O)/C=C/c2ccccc2)C[C@H](OC(C)=O)[C@]2(C)[C@@H]1C[C@]1(C(C)(C)O)C[C@H](OC(C)=O)C(C)=C1[C@@H](OC(C)=O)[C@@H]2OC(C)=O` [TAXUSPINE J], the Activity in test [2] is on record as 114%.
Consider `C=C1[C@@H](OC(=O)c2ccccc2)CC[C@@]2(C)[C@@H](OC(C)=O)[C@H](OC(C)=O)[C@@]34[C@H](C)C(=O)C[C@@H]([C@@H](OC(C)=O)[C@@]132)C4(C)C`, for which the Activity in test [2] was 125%.
For the compound `CC(=O)O[C@@H]1[C@@H]2CC(=O)C(C)=C([C@@H](OC(C)=O)[C@H](OC(C)=O)[C@]3(C)CC[C@H](OC(=O)/C=C/c4ccccc4)[C@@]4(CO4)[C@@H]13)C2(C)C`, the Activity in test [2] was found to be 139%.
Regarding `C=C1[C@@H](OC(=O)/C=C/c2ccccc2)CC[C@@]2(C)[C@H]3OC(C)(C)O[C@@H]3C3=C(C)C(=O)C[C@@H]([C@@H](OC(=O)/C=C/c4ccccc4)[C@H]12)C3(C)C`, the Activity in test [2] was determined as 28%.
Take `CC(=O)O[C@@H]1[C@@H]2CC(=O)C(C)=C([C@@H](OC(C)=O)[C@H](OC(C)=O)[C@]3(C)CC[C@H](O)[C@@]4(CO4)[C@@H]13)C2(C)C`: in test [2], the Activity worked out at 28%.
In the case of `C=C1[C@@H](OC(=O)C[C@H](c2ccccc2)N(C)C)CC[C@@]2(C)[C@@H](OC(C)=O)[C@H](OC(C)=O)C3=C(C)[C@@H](OC(C)=O)C[C@@H]([C@@H](O)[C@H]12)C3(C)C` [TAXUSPINE Z], the Activity in test [2] amounted to 106%.
In turn, `C/C=C(\C)C(=O)N[C@@H](c1ccccc1)[C@@H](O)C(=O)O[C@H]1C[C@@]2(O)[C@@H](OC(=O)c3ccccc3)[C@@H]3[C@]4(OC(C)=O)CO[C@@H]4C[C@H](O)[C@@]3(C)C(=O)[C@H](O)C(=C1C)C2(C)C` returned an IC50 in test [1] of 0.0015 µg/mL (≈ 0.0019 µM).
In the case of `C=C1[C@@H](O)CC[C@@]2(C)[C@@H](OC(C)=O)[C@H](OC(C)=O)C3=C(C)[C@@H](OC(=O)/C=C/c4ccccc4)C[C@@H]([C@@H](OC(C)=O)[C@H]12)C3(C)C`, in test [2], the Activity was found to be 95%.
For `C=C1[C@@H](OC(=O)c2ccccc2)CC[C@@]2(C)[C@@H](OC(C)=O)[C@H](OC(C)=O)C3=C(C)C(=O)C[C@@H]([C@@H](OC(C)=O)[C@H]12)C3(C)C`, the Activity in test [2] is 87%.
On to `CCCCCC(=O)N[C@@H](c1ccccc1)[C@@H](O)C(=O)O[C@H]1C[C@@]2(O)[C@@H](OC(=O)c3ccccc3)[C@@H]3[C@]4(OC(C)=O)CO[C@@H]4C[C@H](O)[C@@]3(C)C(=O)[C@H](OC(C)=O)C(=C1C)C2(C)C` [TAXOL C], for which the IC50 in test [1] came out at 0.0015 µg/mL (≈ 0.00177 µM).
Still for that read-out and setting: next, `CC(=O)O[C@@]12CO[C@@H]1C[C@H](O)[C@@]1(C)C(=O)[C@H](O)C3=C(C)[C@@H](OC(=O)[C@H](O)[C@@H](NC(=O)c4ccccc4)c4ccccc4)C[C@@](O)([C@@H](OC(=O)c4ccccc4)[C@H]21)C3(C)C`: 0.0015 µg/mL (≈ 0.00185 µM).
For `C=C1[C@@H](OC(=O)/C=C/c2ccccc2)CC[C@@]2(C)[C@@H](OC(=O)c3ccccc3)[C@H](OC(=O)c3ccccc3)C3=C(C)C(=O)C[C@@H]([C@@H](OC(C)=O)[C@H]12)C3(C)C`, the Activity in test [2] was 28%.
Take `C=C1[C@@H](OC(=O)/C=C/c2ccccc2)C[C@H](OC(C)=O)[C@]2(C)[C@@H]1C[C@@H]1C[C@H](OC(C)=O)C(C)=C([C@@H](OC(C)=O)[C@@H]2OC(C)=O)C1(C)C`: the Activity in test [2] turned out to be 108%.
Consider `C/C=C(\C)C(=O)N[C@@H](c1ccccc1)[C@@H](O)C(=O)O[C@H]1C[C@@]2(O)[C@@H](OC(=O)c3ccccc3)[C@@H]3[C@]4(OC(C)=O)CO[C@@H]4C[C@H](O)[C@@]3(C)C(=O)[C@H](OC(C)=O)C(=C1C)C2(C)C` [CEPHALOMANNINE], for which inhibition in test [1] was half-maximal at 0.0015 µg/mL (≈ 0.0018 µM) (IC50).
In the case of `C=C1[C@@H](OC(=O)/C=C/c2ccccc2)C[C@H](OC(C)=O)[C@]2(C)[C@@H]1C[C@@H]1C[C@H](O)C(C)=C([C@@H](OC(C)=O)[C@@H]2OC(C)=O)C1(C)C` [TAXEZOPIDINE H], the Activity in test [2] is given as 106%.
As for `C=C1[C@@H](OC(=O)/C=C/c2ccccc2)C[C@H](OC(C)=O)[C@@]2(CO)[C@@H](OC(C)=O)[C@H](OC(C)=O)[C@]3(O)[C@@]4(C)CO[C@]3(C)C(=O)C[C@H]4[C@@H](OC(C)=O)[C@H]12` [TAXUSPINE S], in test [1], 0.08 µg/mL (≈ 0.112 µM) corresponded to half-maximal inhibition (IC50).
As to `CC(=O)O[C@H]1C[C@H]2[C@@H](OC(C)=O)/C=C3\C[C@](C)(C(=O)[C@H](O)C(=C1C)C2(C)C)[C@@H](OC(C)=O)C[C@@H]3OC(=O)/C=C/c1ccccc1` [TAXUSPINE B], the Activity in test [2] turned out to be 96%.
With `C=C1[C@@H](OC(=O)C[C@H](c2ccccc2)N(C)C)C[C@H](OC(C)=O)[C@]2(C)[C@@H]1C[C@@H]1C[C@H](OC(C)=O)C(C)=C([C@@H](OC(C)=O)[C@@H]2OC(C)=O)C1(C)C`, the Activity in test [2] is 114%.
Consider `C=C1[C@@H](OC(=O)/C=C/c2ccccc2)CC[C@@]2(C)[C@@H](OC(=O)/C=C/c3ccccc3)[C@H](OC(=O)/C=C/c3ccccc3)C3=C(C)C(=O)C[C@@H]([C@@H](OC(=O)/C=C/c4ccccc4)[C@H]12)C3(C)C`, for which the Activity in test [2] was 28%.
On the same count and under the same terms, next, `C=C1[C@@H](OC(=O)/C=C/c2ccccc2)CC[C@@]2(C)[C@@H](OC(=O)/C=C/c3ccccc3)[C@H](OC(=O)/C=C/c3ccccc3)C3=C(C)C(=O)C[C@@H]([C@@H](OC(C)=O)[C@H]12)C3(C)C`: 28%.
As for `CC(=O)OC/C1=C\[C@H](OC(C)=O)[C@@H]2C[C@H](OC(C)=O)C(C)=C([C@@H](O)/C(OC(C)=O)=C(\C)[C@@H](OC(C)=O)C[C@@H]1OC(=O)/C=C/c1ccccc1)C2(C)C` [TAXUSPINE X], the Activity in test [2] is listed as 105%.
On the same count and under the same terms, in the case of `C=C1[C@@H](OC(=O)C[C@H](c2ccccc2)N(C)C)CC[C@@]2(C)[C@@H](OC(C)=O)[C@H](OC(C)=O)C3=C(C)C(=O)C[C@@H]([C@@H](OC(C)=O)[C@H]12)C3(C)C` [TAXINE II] it was 95%; in that of `CC[Si](CC)(CC)O[C@H]1CC[C@@]2(C)[C@@H](OC(C)=O)[C@H](OC(C)=O)C3=C(C)C(=O)C[C@@H]([C@@H](OC(C)=O)[C@@H]2[C@@]12CO2)C3(C)C`, 101%.
Regarding `C=C1[C@@H](OC(=O)/C=C/c2ccccc2)CC[C@@]2(C)[C@@H](OC(C)=O)[C@H](OC(C)=O)C3=C(C)[C@@H](OC(=O)/C=C/c4ccccc4)C[C@@H]([C@@H](OC(C)=O)[C@H]12)C3(C)C`, the Activity in test [2] amounted to 28%.
Consider `C=C1[C@@H](O)CC[C@@]2(C)[C@@H](OC(C)=O)[C@H](OC(C)=O)C3=C(C)[C@H](O)C[C@@H]([C@@H](OC(C)=O)[C@H]12)C3(C)C`, for which the Activity in test [2] is given as 28%.
Still for that read-out and setting: in the case of `C=C1[C@@H](OC(=O)c2ccccc2)CC[C@@]2(C)[C@@H](OC(=O)c3ccccc3)[C@H](OC(=O)c3ccccc3)C3=C(C)C(=O)C[C@@H]([C@@H](OC(C)=O)[C@H]12)C3(C)C` it was 28%; in that of `C=C1[C@@H](OC(=O)C[C@H](c2ccccc2)N(C)C)CC[C@]2(C)[C@@H]1C[C@@H]1C[C@H](OC(C)=O)C(C)=C([C@@H](OC(C)=O)[C@@H]2OC(C)=O)C1(C)C`, 119%.
As for `C=C1[C@@H](OC(=O)CCc2ccccc2)CC[C@@]2(C)[C@@H](OC(C)=O)[C@H](OC(C)=O)C3=C(C)C(=O)C[C@@H]([C@@H](OC(C)=O)[C@H]12)C3(C)C`, the Activity in test [2] turned out to be 227%.
For `CC(=O)O[C@@H]1[C@@H]2CC(=O)C(C)=C([C@@H](OC(C)=O)[C@H](OC(C)=O)[C@]3(C)CC[C@H](O)[C@]4(CO4)[C@@H]13)C2(C)C`, the Activity in test [2] amounted to 28%.
Same read-out and setting: next, `C=C1[C@@H](OCOCc2ccccc2)CC[C@@]2(C)[C@@H](OC(C)=O)[C@H](OC(C)=O)C3=C(C)C(=O)C[C@@H]([C@@H](OC(C)=O)[C@H]12)C3(C)C`: 150%; `C=C1[C@@H](OC(=O)/C=C/c2ccccc2)CC[C@@]2(C)[C@H]3OC(C)(C)O[C@@H]3C3=C(C)C(=O)C[C@@H]([C@@H](OC(=O)c4ccccc4)[C@H]12)C3(C)C`: 28%.
Same read-out and setting: in the case of `C=C1[C@@H](OC(=O)/C=C/c2ccccc2)CC[C@@]2(C)[C@@H](OC(C)=O)[C@H](OC(C)=O)[C@@]34[C@H](C)C(=O)C[C@@H]([C@@H](OC(C)=O)[C@@]132)C4(C)C` [TAXUSPINE C] it was 104%.
`C=C1[C@@H](O)CC[C@@]2(C)[C@@H](OC(C)=O)[C@H](OC(C)=O)C3=C(C)[C@@H](OC(=O)c4ccccc4)C[C@@H]([C@@H](OC(C)=O)[C@H]12)C3(C)C`: the Activity in test [2] was found to be 87%.
Still for that read-out and setting: next, `C=C1[C@@H](OC(=O)c2ccccc2)CC[C@@]2(C)[C@@H](OC(C)=O)[C@H](OC(C)=O)C3=C(C)[C@@H](O)C[C@@H]([C@@H](OC(C)=O)[C@H]12)C3(C)C`: 88%.
As to `C=C1[C@@H](O)CC[C@@]2(C)[C@@H](OC(C)=O)[C@H](OC(C)=O)C3=C(C)[C@@H](O)C[C@@H]([C@@H](OC(C)=O)[C@H]12)C3(C)C`, the Activity in test [2] came to 28%.
